Values joined by “and” are separate entries in the source; they are usually repeats but may differ in a detail not shown here. Equal entries are not always repeated.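 Briefly, cells in 96-well plates were exposed to five compound concentrations for 48 h, and endpoints were estimated by linear interpolation. Abbreviation: GI50, concentration required for 50% inhibition of growth. TGI: concentration producing complete growth inhibition.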

The text below walks through data of PubChem BioAssay (NCI).

Test systems include SW-620 colon; RPMI-8226 leukemia; K-562 leukemia; OVCAR-4 ovarian; HCT-15 colon; NCI-H460 lung; SK-OV-3 ovarian; SK-MEL-28 melanoma; UACC-62 melanoma; EKVX NSCLC.
What all share (experiment): DTP human tumour cell line panel, 48 h

As for `CCOC(=O)NC(=O)c1cn(CCCOC(=O)CCCCCCCCCCC(=O)OCCCn2cc(C(=O)NC(=O)OCC)c(=O)n(C)c2=O)c(=O)n(C)c1=O`, the TGI with SW-620 colon, in the experiment on RPMI-8226 leukemia, in the experiment on K-562 leukemia, in the experiment on OVCAR-4 ovarian, in the experiment with HCT-15 colon and in the experiment on NCI-H460 lung was more than 100 µM in each case. The concentration for total growth inhibition (TGI) in the experiment with SK-OV-3 ovarian, with SK-MEL-28 melanoma, in the experiment with UACC-62 melanoma and with EKVX NSCLC was more than 100 µM in each case.
For the molecule `COc1cc(C(c2cc3c(cc2O)OCO3)N2CCCCC2)cc(OC)c1OC` (centres undefined), the concentration for total growth inhibition (TGI) was 12 µM in the experiment with SW-620 colon; more than 26.9 µM with RPMI-8226 leukemia; more than 21.3 µM in the experiment on K-562 leukemia; 25.2 µM in the experiment with OVCAR-4 ovarian; 30.8 µM in the experiment with HCT-15 colon; 45.8 µM in the experiment on NCI-H460 lung. Moreover, the TGI was determined as 56.2 µM in the experiment with SK-OV-3 ovarian, 32 µM in the experiment with SK-MEL-28 melanoma, 30.6 µM with UACC-62 melanoma and 39.5 µM with EKVX NSCLC.
Take `CCCCCCCCCCC(O)C1CCC(C(O)CCC(O)C2CCC(CCCCCCC[C@H](O)CC3=C[C@@H](C)OC3=O)O2)O1` (some centres undefined): the GI50 in the experiment on SW-620 colon was 9.3 µM; with RPMI-8226 leukemia, 6.36 µM; in the experiment on K-562 leukemia, 2180 nM; with UACC-62 melanoma, 466 nM; in the experiment on EKVX NSCLC, 4.16 µM. For the same molecule, the concentration for total growth inhibition (TGI) with SW-620 colon, in the experiment with RPMI-8226 leukemia, in the experiment on K-562 leukemia, in the experiment on OVCAR-4 ovarian, in the experiment on HCT-15 colon and in the experiment with NCI-H460 lung was more than 100 µM throughout. The TGI in the experiment on SK-OV-3 ovarian was more than 66.1 µM; in the experiment with SK-MEL-28 melanoma, more than 100 µM; in the experiment with UACC-62 melanoma, more than 100 µM; in the experiment on EKVX NSCLC, more than 100 µM.
`C=CCN1C=CC(=O)[C@H](O[Si](C)(C)C(C)(C)C)[C@@H]1/C=C/c1ccccc1`: the GI50 in the experiment with SW-620 colon is 14.5 µM; in the experiment on RPMI-8226 leukemia, 13.6 µM; in the experiment with K-562 leukemia, 9560 nM; with OVCAR-4 ovarian it was 11.6 µM; with HCT-15 colon, 12.5 µM; in the experiment on NCI-H460 lung it was 8.38 µM. The GI50 in the experiment with SK-OV-3 ovarian is 14.9 µM; in the experiment on SK-MEL-28 melanoma, 15 µM; in the experiment on UACC-62 melanoma, 12100 nM; in the experiment with EKVX NSCLC, 14 µM. Further, the TGI is 29.3 µM in the experiment with SW-620 colon; 45.2 µM in the experiment with RPMI-8226 leukemia; 31.3 µM in the experiment with K-562 leukemia; 24.7 µM in the experiment on OVCAR-4 ovarian; 25.6 µM in the experiment with HCT-15 colon; 23.8 µM in the experiment with NCI-H460 lung. The TGI amounted to 28.6 µM with SK-OV-3 ovarian, 28.6 µM in the experiment on SK-MEL-28 melanoma, 26.7 µM in the experiment on UACC-62 melanoma and 40.7 µM in the experiment with EKVX NSCLC.
Regarding `COc1cc2c(cc1OCCCCCCN1CCN(c3ncnc4ccccc34)CC1)N=CC1CCCN1C2=O` (centres undefined), the 50% growth inhibitory concentration (GI50) with SW-620 colon was 0.0935 µM; with RPMI-8226 leukemia, less than 0.0207 µM; with K-562 leukemia, 44.6 nM; with OVCAR-4 ovarian, 0.13 µM; with HCT-15 colon it was 0.493 µM; in the experiment on NCI-H460 lung, 0.11 µM. In addition, the GI50 with SK-OV-3 ovarian is 0.637 µM; in the experiment on SK-MEL-28 melanoma it was 0.193 µM; in the experiment with UACC-62 melanoma, 143 nM; in the experiment on EKVX NSCLC it was 0.354 µM. Moreover, the TGI in the experiment with SW-620 colon worked out at 0.566 µM; in the experiment on RPMI-8226 leukemia, 0.103 µM; with OVCAR-4 ovarian, 2.05 µM; in the experiment with HCT-15 colon, 2.39 µM; in the experiment with NCI-H460 lung, 0.728 µM; in the experiment on SK-OV-3 ovarian, 7.47 µM. For the same molecule, the TGI was found to be 0.51 µM in the experiment on SK-MEL-28 melanoma, 0.326 µM with UACC-62 melanoma and 2.01 µM with EKVX NSCLC.
In the case of `CC1=C2C[C@H]3[C@@H](CC=C4C[C@@H](O)CC[C@@]43C)[C@@H]2CC[C@]12O[C@@H]1C[C@H](C)CN[C@H]1[C@H]2C`, the GI50 in the experiment with SW-620 colon was > 50 µM and 32.9 µM; in the experiment with RPMI-8226 leukemia, 8.84 µM and 18.1 µM; with K-562 leukemia, 9400 nM and 15900 nM; with OVCAR-4 ovarian, 32.1 µM and 18.8 µM; with HCT-15 colon, 12.6 µM and 22.3 µM; in the experiment with NCI-H460 lung it was 21.8 µM and 19.9 µM. For the same molecule, the GI50 was 14.2 µM and 13.9 µM with SK-OV-3 ovarian; > 50 µM and 48.5 µM in the experiment on SK-MEL-28 melanoma; 24600 nM and 21100 nM in the experiment on UACC-62 melanoma; 51.9 µM in the experiment on EKVX NSCLC. In addition, the TGI with SW-620 colon is more than 100 µM; with RPMI-8226 leukemia, 31.8 µM and 46.2 µM; in the experiment with K-562 leukemia, 34.7 µM and 40.2 µM; in the experiment with OVCAR-4 ovarian, 50 µM and 37.3 µM; with HCT-15 colon, 49.4 µM and > 100 µM; with NCI-H460 lung, 50 µM and 44.4 µM. In addition, the total growth inhibition concentration (TGI) is 28.2 µM and 34.7 µM with SK-OV-3 ovarian; more than 100 µM in the experiment on SK-MEL-28 melanoma; 50 µM and 43.7 µM with UACC-62 melanoma; more than 100 µM with EKVX NSCLC.
Consider `COc1cc2c(Oc3ccc4[nH]c(C)cc4c3F)ccnc2cc1OCC1(N)CC1`, for which the GI50 with SW-620 colon was 0.757 µM; with RPMI-8226 leukemia, 2.1 µM; with K-562 leukemia, 416 nM; in the experiment with OVCAR-4 ovarian it was 4.22 µM; with HCT-15 colon, 0.854 µM; in the experiment on NCI-H460 lung, 0.908 µM. The GI50 in the experiment on SK-OV-3 ovarian is 3.61 µM; in the experiment with SK-MEL-28 melanoma, 1.41 µM; in the experiment with UACC-62 melanoma, 1640 nM; with EKVX NSCLC, 2.79 µM. Further, the TGI was 11.8 µM with SW-620 colon; 5.95 µM with RPMI-8226 leukemia; 12.3 µM with K-562 leukemia; more than 100 µM in the experiment with OVCAR-4 ovarian; 13.5 µM in the experiment with HCT-15 colon; 6.84 µM with NCI-H460 lung. Also, the concentration for total growth inhibition (TGI) in the experiment with SK-OV-3 ovarian was 80.2 µM; in the experiment on SK-MEL-28 melanoma it was 2.95 µM; in the experiment with UACC-62 melanoma it was 3.79 µM; in the experiment on EKVX NSCLC it was more than 100 µM.
Take `COc1cccc(-c2nc3sccn3c2-c2ccnc(NCCNS(=O)(=O)c3ccccc3)c2)c1`: the GI50 in the experiment on SW-620 colon is 4.3 µM; with RPMI-8226 leukemia, 1.05 µM; in the experiment with K-562 leukemia, 1460 nM; in the experiment on OVCAR-4 ovarian, 2.09 µM; in the experiment on HCT-15 colon, 2.55 µM; in the experiment on NCI-H460 lung, 3.47 µM. Also, the GI50 in the experiment with SK-OV-3 ovarian was 5.11 µM; in the experiment on SK-MEL-28 melanoma, 5.13 µM; in the experiment with UACC-62 melanoma, 1290 nM; in the experiment on EKVX NSCLC, 3.13 µM. The TGI in the experiment with SW-620 colon was more than 100 µM; in the experiment with RPMI-8226 leukemia, 3.65 µM; in the experiment on K-562 leukemia, more than 100 µM; in the experiment on OVCAR-4 ovarian it was more than 100 µM; in the experiment with HCT-15 colon, more than 100 µM; in the experiment with NCI-H460 lung, more than 100 µM. For the same molecule, the TGI was more than 100 µM with SK-OV-3 ovarian, more than 100 µM in the experiment on SK-MEL-28 melanoma, 3.49 µM in the experiment on UACC-62 melanoma and more than 100 µM with EKVX NSCLC.
